For the assay, the system named is P388 leukemia ip, CD2F1 mice, survival T/C. The experiment in a line: NCI In Vivo Anticancer Drug Screen. Data for tumor model P388 Leukemia (intraperitoneal) in CD2F1 (CDF1) mice. The conditions noted are these: endpoint: median survival time, higher = longer survival. Put shortly: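 Mice carrying the transplanted tumor received test compound or vehicle. Survival was recorded in each group, and the value is the treated-group measurement divided by that of the vehicle-treated control group.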

[1] abbreviates: dose: 100.0 mg/kg/injection, schedule: Q04DX002 (ip), vehicle: saline.
[2] abbreviates: dose: 200.0 mg/kg/injection, schedule: Q04DX002 (ip), vehicle: saline.
Setting [3] is: dose: 50.0 mg/kg/injection, schedule: Q01DX005 (ip), vehicle: saline with Tween-80.
Setting [4] is: dose: 100.0 mg/kg/injection, schedule: Q01DX005 (ip), vehicle: saline with Tween-80.
[5] abbreviates: dose: 200.0 mg/kg/injection, schedule: Q01DX005 (ip), vehicle: saline with Tween-80.
Setting [6] is: dose: 12.5 mg/kg/injection, schedule: Q01DX009 (ip), vehicle: water.
[7] abbreviates: dose: 25.0 mg/kg/injection, schedule: Q01DX009 (ip), vehicle: water.
Where [8] appears, read: dose: 50.0 mg/kg/injection, schedule: Q01DX009 (ip), vehicle: saline with Tween-80.
Setting [9] is: dose: 50.0 mg/kg/injection, schedule: Q01DX009 (ip), vehicle: water.
Where [10] appears, read: dose: 60.0 mg/kg/injection, schedule: Q01DX005 (ip), vehicle: Klucel (hydroxypropylcellulose) (HPC).
Where [11] appears, read: dose: 120.0 mg/kg/injection, schedule: Q01DX005 (ip), vehicle: Klucel (hydroxypropylcellulose) (HPC).
The mark [12] stands for this setting: dose: 240.0 mg/kg/injection, schedule: Q01DX005 (ip), vehicle: Klucel (hydroxypropylcellulose) (HPC).
Setting [13] is: dose: 60.0 mg/kg/injection, schedule: Q01DX005 (ip), vehicle: saline with Tween-80.
The mark [14] stands for this setting: dose: 120.0 mg/kg/injection, schedule: Q01DX005 (ip), vehicle: saline with Tween-80.
The mark [15] stands for this setting: dose: 240.0 mg/kg/injection, schedule: Q01DX005 (ip), vehicle: saline with Tween-80.
Setting [16] is: dose: 12.5 mg/kg/injection, schedule: Q01DX009 (ip), vehicle: saline with Tween-80.
The mark [17] stands for this setting: dose: 25.0 mg/kg/injection, schedule: Q01DX009 (ip), vehicle: saline with Tween-80.
The mark [18] stands for this setting: dose: 200.0 mg/kg/injection, schedule: Q01DX009 (ip), vehicle: saline with Tween-80.

The structures appear in SMILES notation. “And” between values parts separate entries of the source, which are not always exact repeats. Equal values may be shown once. Inconclusive results and toxic doses are left out.

As for `c1ccc2c(c1)Sc1ccccc1N2CCCNC1=NCCO1`, the T/C by setting is: (dose: 12.5 mg/kg/injection, schedule: Q04DX003 (ip), vehicle: saline with Tween-80) 94 % of control; (dose: 25.0 mg/kg/injection, schedule: Q04DX003 (ip), vehicle: saline with Tween-80) 96 % of control; (dose: 50.0 mg/kg/injection, schedule: Q04DX003 (ip), vehicle: saline with Tween-80) 87 % of control; (dose: 200.0 mg/kg/injection, schedule: Q04DX003 (ip), vehicle: saline with Tween-80) 88 % of control; (dose: 400.0 mg/kg/injection, schedule: Q04DX003 (ip), vehicle: saline with Tween-80) 90 % of control.
For the compound `FC(F)(F)c1cc(Cl)nc(Cl)n1`, the T/C reads like this: (dose: 6.0 mg/kg/injection, schedule: Q01DX005 (ip), vehicle: saline with Tween-80) 106 % of control; (dose: 12.0 mg/kg/injection, schedule: Q01DX005 (ip), vehicle: saline with Tween-80) 97 % of control; (dose: 25.0 mg/kg/injection, schedule: Q01DX005 (ip), vehicle: saline with Tween-80) 92 % of control.
`CC(=O)NC(C(=O)N1CCCC1)=C(C)C`: the T/C is, setting by setting: under setting [1], 100 % of control; under setting [2], 98 % of control; (dose: 400.0 mg/kg/injection, schedule: Q04DX002 (ip), vehicle: saline) 107 % of control.
Consider `CC1=C(C(=O)Nc2ccccc2)C(c2ccc(C)cc2)C(C(=O)Nc2ccccc2)=C(C)N1`, for which the T/C was 107 % of control (dose: 100.0 mg/kg/injection, schedule: Q04DX002 (ip), vehicle: saline with Tween-80); 106 % of control (dose: 200.0 mg/kg/injection, schedule: Q04DX002 (ip), vehicle: saline with Tween-80); 101 % of control (dose: 400.0 mg/kg/injection, schedule: Q04DX002 (ip), vehicle: saline with Tween-80).
In the case of `COCCn1c(=N)c(C(=O)OC)nc2c3ccccc3ccc21`, the T/C runs as follows: under setting [3], 104 % of control; under setting [4], 107 % of control; under setting [5], 101 % of control.
As to `Cc1c(C=O)cc(-c2ccccc2)n1C`, the T/C reads like this: under setting [3], 89 % of control; under setting [4], 89 % of control; under setting [5], 91 % of control.
In the case of `O=C1C2C3C=CC(C2C(=O)N1CO)C1C2C(=O)N(CO)C(=O)C2C31` (stereo not given), the T/C under setting [6] was 105 % of control, the T/C under setting [7] is 157 % of control, the T/C under setting [8] was 195 % of control and the T/C under setting [9] is 208 % of control.
In the case of `Cc1cc(NC(=O)CSCC(=O)O)no1`, the T/C is 98 % of control under setting [10], 101 % of control under setting [11] and 94 % of control under setting [12].
For the compound `NNC(=O)CCC(=O)NN`, the T/C runs as follows: under setting [1], 101 % of control; under setting [2], 96 % of control.
As to `COc1ccc(C2CC(=O)NC2=O)cc1OC` (stereo not given), the T/C runs as follows: under setting [13], 96 % of control; under setting [14], 92 % of control; under setting [15], 97 % of control.
Take `CC(=O)Oc1cc2c(cc1OC(C)=O)C(=O)c1cc3c(cc1C2=O)OCO3`: the T/C was 107 % of control under setting [13], 120 % of control under setting [14] and 108 % of control under setting [15].
For `N#CCCN(CCC#N)c1ccc(/C=C2/C=C(c3ccccc3)OC2=O)cc1`, the T/C is, setting by setting: (dose: 100.0 mg/kg/injection, schedule: Q01DX001 (ip), vehicle: saline with Tween-80) 97 % of control; (dose: 200.0 mg/kg/injection, schedule: Q01DX001 (ip), vehicle: saline with Tween-80) 94 % of control; (dose: 400.0 mg/kg/injection, schedule: Q01DX001 (ip), vehicle: saline with Tween-80) 90 % of control.
For `O=[N+]([O-])c1ccc(Sc2ncnc3nc[nH]c23)c2nonc12`, the T/C (dose: 0.78 mg/kg/injection, schedule: Q01DX009 (ip), vehicle: Klucel (hydroxypropylcellulose) (HPC)) was 105 % of control; the T/C (dose: 1.56 mg/kg/injection, schedule: Q01DX009 (ip), vehicle: Klucel (hydroxypropylcellulose) (HPC)) was 109 % of control and 86 % of control; the T/C (dose: 3.12 mg/kg/injection, schedule: Q01DX009 (ip), vehicle: Klucel (hydroxypropylcellulose) (HPC)) is 99 % of control and 104 % of control; the T/C (dose: 6.25 mg/kg/injection, schedule: Q01DX009 (ip), vehicle: Klucel (hydroxypropylcellulose) (HPC)) was 105 % of control and 98 % of control; the T/C (dose: 12.5 mg/kg/injection, schedule: Q01DX009 (ip), vehicle: Klucel (hydroxypropylcellulose) (HPC)) is 113 % of control and 116 % of control and 122 % of control; the T/C (dose: 25.0 mg/kg/injection, schedule: Q01DX009 (ip), vehicle: Klucel (hydroxypropylcellulose) (HPC)) was 112 % of control.
For `COC(=O)N1CCCc2ccc3c(OC)c(OC)cc(c3c2)CC1`, the T/C is 100 % of control under setting [10], 100 % of control under setting [11] and 88 % of control under setting [12].
In the case of `CS(=N)(=O)CCC(N)C(=O)O` (stereo not given) (tested in a mixture with another compound), the T/C (dose: 25.0 mg/kg/injection, schedule: Q01DX001 (ip), vehicle: saline) is 100 % of control; the T/C (dose: 50.0 mg/kg/injection, schedule: Q01DX001 (ip), vehicle: saline) was 105 % of control; the T/C (dose: 100.0 mg/kg/injection, schedule: Q01DX001 (ip), vehicle: saline) is 105 % of control.
Take `COc1cc(NCC(O)CN(CC(C)C)C2CCCC2)c2ncccc2c1` (stereo not given): the T/C (dose: 12.5 mg/kg/injection, schedule: Q01DX005 (ip), vehicle: saline) was 100 % of control and the T/C (dose: 25.0 mg/kg/injection, schedule: Q01DX005 (ip), vehicle: saline) is 99 % of control.
For `Cc1cnc2cc(Cl)ccc2c1SCC(=O)O`, the T/C is 104 % of control under setting [3], 108 % of control under setting [4] and 108 % of control under setting [5].
Turning to `O=[N+]([O-])c1ccc(N=Nc2ccc(N(CCCl)CCCl)cc2)c([N+](=O)[O-])c1`, the T/C is 106 % of control (dose: 100.0 mg/kg/injection, schedule: Q01DX001 (ip), vehicle: Klucel (hydroxypropylcellulose) (HPC)); 108 % of control (dose: 200.0 mg/kg/injection, schedule: Q01DX001 (ip), vehicle: Klucel (hydroxypropylcellulose) (HPC)); 103 % of control (dose: 400.0 mg/kg/injection, schedule: Q01DX001 (ip), vehicle: Klucel (hydroxypropylcellulose) (HPC)).
Turning to `CCCCCCC(=O)/C=C/c1cccc(OCc2ccc([N+](=O)[O-])cc2)c1`, the T/C is 86 % of control under setting [16]; 89 % of control under setting [17]; 87 % of control and 91 % of control under setting [8]; 88 % of control under setting [18].
As for `Cc1nn(C)c2ccc3ccccc3c(=O)c12`, the T/C runs as follows: under setting [10], 101 % of control; under setting [11], 102 % of control; under setting [12], 105 % of control.
Turning to `Cc1nc2nnc(N)n2nc1C`, the T/C reads like this: (dose: 100.0 mg/kg/injection, schedule: Q04DX003 (ip), vehicle: Klucel (hydroxypropylcellulose) (HPC)) 106 % of control; (dose: 200.0 mg/kg/injection, schedule: Q04DX003 (ip), vehicle: Klucel (hydroxypropylcellulose) (HPC)) 97 % of control; (dose: 400.0 mg/kg/injection, schedule: Q04DX003 (ip), vehicle: Klucel (hydroxypropylcellulose) (HPC)) 96 % of control.
Consider `CC(=O)NC[Si](C)(C)C`, for which the T/C runs as follows: (dose: 60.0 mg/kg/injection, schedule: Q01DX005 (ip), vehicle: saline) 93 % of control; (dose: 120.0 mg/kg/injection, schedule: Q01DX005 (ip), vehicle: saline) 96 % of control; (dose: 240.0 mg/kg/injection, schedule: Q01DX005 (ip), vehicle: saline) 103 % of control.
`O=C(c1ccccc1)N1C=CN(C(=O)c2ccccc2)C1c1nccn1C(=O)c1ccccc1`: the T/C was 105 % of control under setting [8]; 96 % of control (dose: 100.0 mg/kg/injection, schedule: Q01DX009 (ip), vehicle: saline with Tween-80); 91 % of control under setting [18].
For `O=C1c2ccccc2C(Cl)=C(Cl)C1(Cl)Cl`, the T/C is, setting by setting: under setting [16], 104 % of control; under setting [17], 90 % of control.
Turning to `CN(C)CCOc1cccc2c1C(=O)c1ccccc1C2=O`, the T/C by setting is: under setting [6], 113 % of control; under setting [7], 105 % of control; under setting [9], 107 % of control; (dose: 100.0 mg/kg/injection, schedule: Q01DX009 (ip), vehicle: water) 109 % of control.

The values above are taken from PubChem BioAssay AID330 (DTP/NCI, 2004).
